From patent US4071680A, “5'-Deoxy-5-fluoropyrimidine nucleosides” (Hoffmann-La Roche Inc., priority 1976, dated 1978)
Read-outs that look alike come from different tables or passages of the source.

How the values were obtained:
[1] = test system: Sarcoma 180 Tumor; format: in vivo, albino mice
Protocol: (§1) All compounds were dissolved in water for administration to animals.
(§2) Small pieces of tumor (20-30mg) were implanted subcutaneously by trocar into the right inguinal region of 18-20 g albino mice. The fragments were obtained from donors bearing firm subcutaneous tumors implanted 7-10 days previously. Treatment was begun on the day of implantation and continued once daily for a total of 8 treatments. The animals were sacrificed 8 days after implantation and the tumors excised and weighed. The ratio of the average weight of the tumors from the untreated control group (C) divided by the average weight of the tumors from the treated group (T) was calculated. The percent inhibition of tumor growth was calculated from the formula:
(§3) % Inhibition = 100 (C-T)/C . The compound was considered to be active at a particular dose if % inhibition ≥ 50%.
(§4) Results obtained from experiments, utilizing compounds of the present invention and representative prior art compounds are summarized below in Table 1.
Effect of Pyrimidine Nucleosides Against Sarcoma 180 Tumor in Mice
(active doses are those which produce ≥50% tumor inhibition)

[2] = test system: Ehrlich Carcinoma; format: in vivo, albino mice
Protocol: as §1, §2, §3
The solid form of this tumor was produced by subcutaneous implantation of 0.5 ml of a 1-10 saline - diluted ascitic tumor cell suspensions derived from 18-20 g albino donor mice implanted 7-10 days previously. Treatment and evaluation procedures were identical to those used for Sarcoma 180.
as §4
Effect of pyrimidine Nucleosides Against Ehrlich Carcinoma in Mice

[3] = test system: L1210 leukemia cell cultures; conditions: Falco and Fox, J. Med. Chem. 11, 148 (1968); cited from earlier work
[4] = test system: Burkitt's cell cultures; conditions: Falco and Fox, J. Med. Chem. 11, 148 (1968); cited from earlier work
[5] = test system: Yoshida sarcoma; conditions: Japanese Pat. No. 51-086481; cited from earlier work

C[C@H]1O[C@@H](n2cc(F)c(N)nc2=O)[C@H](O)[C@@H]1O [5'-Deoxy-5-Fluorocytidine]
Percent Inhibition of tumor growth ([1]; 6.25 mg/kg × 8, po): 26%
Percent Inhibition of tumor growth ([1]; 12.5 mg/kg × 8, ip): 37%
Percent Inhibition of tumor growth ([1]; 12.5 mg/kg × 8, po): 62%
Percent Inhibition of tumor growth ([1]; 25 mg/kg × 8, ip): 64%
Percent Inhibition of tumor growth ([1]; 25 mg/kg × 8, po): 76%
Percent Inhibition of tumor growth ([1]; 50 mg/kg × 8, ip): 72%
Percent Inhibition of tumor growth ([1]; 50 mg/kg × 8, po): 65%
Percent Inhibition of tumor growth ([1]; 100 mg/kg × 8, ip): 86%
Percent Inhibition of tumor growth ([1]; 100 mg/kg × 8, po): 76%
Percent Inhibition of tumor growth ([1]; 200 mg/kg × 8, ip): 93%
Percent Inhibition of tumor growth ([1]; 200 mg/kg × 8, po): 82%
Percent Inhibition of tumor growth ([1]; 400 mg/kg × 8, ip): 95%
Percent Inhibition of tumor growth ([1]; 400 mg/kg × 8, po): 92%
Percent Inhibition of tumor growth ([2]; 25 mg/kg × 8, ip): 45%
Percent Inhibition of tumor growth ([2]; 25 mg/kg × 8, po): 37%
Percent Inhibition of tumor growth ([2]; 50 mg/kg × 8, ip): 57%
Percent Inhibition of tumor growth ([2]; 50 mg/kg × 8, po): 58%
Percent Inhibition of tumor growth ([2]; 100 mg/kg × 8, ip): 65%
Percent Inhibition of tumor growth ([2]; 100 mg/kg × 8, po): 71%
Percent Inhibition of tumor growth ([2]; 200 mg/kg × 8, ip): 72%
Percent Inhibition of tumor growth ([2]; 200 mg/kg × 8, po): 80%
Percent Inhibition of tumor growth ([2]; 400 mg/kg × 8, ip): 91%
Percent Inhibition of tumor growth ([2]; 400 mg/kg × 8, po): 95%
Percent Inhibition of tumor growth ([2]; 800 mg/kg × 8, po): 99%

C[C@H]1O[C@@H](n2ccc(=O)[nH]c2=O)[C@H](O)[C@@H]1O [5'-Deoxyuridine, reference compound]
Percent Inhibition of tumor growth ([1]; 100 mg/kg × 8, ip): 41%
Percent Inhibition of tumor growth ([1]; 200 mg/kg × 8, ip): 9%

C[C@H]1O[C@@H](n2ccc(N)nc2=O)[C@@H](O)[C@@H]1O [1-(5'-deoxy-β-D-arabinofuranosyl) cytosine]
activity against L1210 leukemia cell cultures [3]: inactive
activity against Burkitt's cell cultures [4]: inactive

C[C@H]1O[C@@H](n2cc(F)c(=O)[nH]c2=O)C[C@@H]1O [2',5'-Dideoxy-5-Fluorouridine, reference compound]
Percent Inhibition of tumor growth ([1]; 100 mg/kg × 8, ip): 37%
Percent Inhibition of tumor growth ([1]; 200 mg/kg × 8, ip): 68%
Percent Inhibition of tumor growth ([1]; 200 mg/kg × 8, po): 34%
Percent Inhibition of tumor growth ([1]; 400 mg/kg × 8, ip): 81%
inhibition of growth of Yoshida sarcoma [5]: inhibiting the growth of Yoshida sarcoma

C[C@H]1O[C@@H](n2cc(F)c(=O)[nH]c2=O)[C@H](O)[C@@H]1O [5'-Deoxy-5-Fluorouridine]
Percent Inhibition of tumor growth ([1]; 1.56 mg/kg × 8, po): 30%
Percent Inhibition of tumor growth ([1]; 3.12 mg/kg × 8, po): 51%
Percent Inhibition of tumor growth ([1]; 6.25 mg/kg × 8, po): 68%
Percent Inhibition of tumor growth ([1]; 12.5 mg/kg × 8, ip): 43%
Percent Inhibition of tumor growth ([1]; 12.5 mg/kg × 8, po): 73%
Percent Inhibition of tumor growth ([1]; 25 mg/kg × 8, ip): 67%
Percent Inhibition of tumor growth ([1]; 25 mg/kg × 8, po): 75%
Percent Inhibition of tumor growth ([1]; 50 mg/kg × 8, ip): 89%
Percent Inhibition of tumor growth ([1]; 50 mg/kg × 8, po): 80%
Percent Inhibition of tumor growth ([1]; 100 mg/kg × 8, ip): 88%
Percent Inhibition of tumor growth ([1]; 100 mg/kg × 8, po): 83%
Percent Inhibition of tumor growth ([1]; 200 mg/kg × 8, ip): 88%
Percent Inhibition of tumor growth ([1]; 200 mg/kg × 8, po): 90%
Percent Inhibition of tumor growth ([1]; 400 mg/kg × 8, po): 90%
Percent Inhibition of tumor growth ([2]; 25 mg/kg × 8, ip): 43%
Percent Inhibition of tumor growth ([2]; 25 mg/kg × 8, po): 27%
Percent Inhibition of tumor growth ([2]; 50 mg/kg × 8, ip): 59%
Percent Inhibition of tumor growth ([2]; 50 mg/kg × 8, po): 56%
Percent Inhibition of tumor growth ([2]; 100 mg/kg × 8, ip): 71%
Percent Inhibition of tumor growth ([2]; 100 mg/kg × 8, po): 70%
Percent Inhibition of tumor growth ([2]; 200 mg/kg × 8, ip): 86%
Percent Inhibition of tumor growth ([2]; 200 mg/kg × 8, po): 90%
Percent Inhibition of tumor growth ([2]; 400 mg/kg × 8, ip): 98%
Percent Inhibition of tumor growth ([2]; 400 mg/kg × 8, po): 98%
Percent Inhibition of tumor growth ([2]; 800 mg/kg × 8, po): 99%
